In patent publication US20070196272A1, “ORAL DELIVERY OF THERAPEUTIC AGENTS USING TIGHT JUNCTION AGONISTS” (priority 2006, published 2007):
Read-outs that look alike come from different tables or passages of the source.

Legend:
[1] = in vitro; conditions: human, Caco-2
Description: (§1) Caco-2 cells, a human colon adenocarcinoma cell line, were grown as monolayers for 21 days in Dulbecco's Modified Eagle's medium (1×) containing 10% fetal bovine serum, 1% non-essential amino acid solution, 1% penicillin-streptomycin and 2% glutamine at 37° C. in an atmosphere of 5% CO2 and 90% relative humidity. Caco-2 cells from passage numbers of 51 to 52 were seeded on permeable polycarbonate inserts (1 cm^2, 0.4 μm pore size) in 12 Transwell plates at a density of 80,000 cells/cm^2. The inserts were fed with media every other day until they were used for experiments 21 days after the initial seeding. The integrity of the cell monolayers was evaluated by measuring the transepithelial electrical resistance (TEER) values before the study using a Millicell®-ERS meter (Millipore Corp., Bedford, Mass.) with chopstick electrodes. […] The cell monolayers were washed twice with PBS prior to the transport experiments. After the wash, the plates were incubated for 30 min at 37° C., and the integrity of the cell monolayers was evaluated by measurement of TEER. The cell inserts were used in transport experiments when the TEER values reached >300 Ωcm^2.
(§2) The insert was moved to a well containing fresh PBS every 10 min for 40 min.
(§3) Papp was calculated according to the following equation: [formula] […]
(§4) The percent enhancement ratio, ER (%), for the Papp was calculated from the formula, [formula] […]

[2] = test system: intercellular tight junctions; test: Ussing chamber model
From the text: Our recent observation that zonulin may represent a new member of the serine protease family whose target receptor seems to be a variant of the protease activated receptor (PAR)2, lead us to the observation that the first six amino acids following V. cholerae-mediated ZOT cleavage (AA 289-295 [FCIGRL]) closely resembles the active motif of PAR2 (SLIGRL). Therefore, the six-mer synthetic peptide FCIGRL (that we named AT1002) was generated.

[3] = for intestinal transport of [^3H]-cyclosporin A, enhancement: AT-1002 40 mg/kg with PI and BC 0.1% w/v, ID
From the text: Male Sprague-Dawley rats (230-280 g) were purchased from Harlan Laboratories (Indianapolis, Ind.). Rats were housed individually in cages and allowed to acclimate at least two days after arrival. Rats were fed Rat Chow and water ad libitum and maintained on a 12-h light: 12-h dark cycle. The protocol for the animal studies was approved by the School of Pharmacy, University of Maryland IACUC.
Male Sprague-Dawley rats were fasted overnight prior to and during the study with free access to water. Prior to the administration of AT1002, the rats were anesthetized with an intra-peritoneal injection of ketamine (80 mg/kg) and xylazine (12 mg/kg), and the duodenum and jugular vein were cannulated. […] Blood samples (250 μl) were drawn via the jugular cannula into heparinized syringes at 0 (actual time point was −5 min before the administration), 20, 60, and 120 min into polypropylene tubes, centrifuged (13,000 rpm for 10 min) immediately and plasma was obtained. Scintillation cocktail was added and samples were analyzed for radioactivity by Beckman Coulter LS 6500 multi-purpose Scintillation counter.
The area under the plasma concentration-time curve (AUC0-t) was calculated using the linear trapezoidal rule. The highest observable concentration was defined as maximum concentration (Cmax). The percent enhancement ratio, ER (%), for the pharmacokinetic parameters was calculated from the formula, [formula]
[^3H]-cyclosporin (120 μCi/kg) was co-administered with AT-1002 (40 mg/kg), protease inhibitors (i.e. bestatine (30 mg/kg) and E-64 (10 mg/kg)) and benzalkonium chloride (0.1% w/v) to rats (n=5 per group) via the intra-duodenal administration.

[4] = AT-1002 10 mg/kg with bestatine 30 mg/kg and E-64 10 mg/kg, oral, each sampling time
Description: The ability of AT-1002 on the transport of [^14C]-mannitol across the intestinal membrane was examined in mice. [^14C]-mannitol (30 μCi/kg) was co-administered with AT-1002 (10 mg/kg) and protease inhibitors (i.e. bestatine (30 mg/kg) and E-64 (10 mg/kg)) to mice (n=3 per group) via the oral administration.

[5] = PI, BC 0.05% w/v, ID, not statistically enhanced
[6] = AT-1002 10, 20 and 40 mg/kg, PI, BC 0.05% w/v, ID
Description: The effect of AT-1002 on the transport of [^14C]-innulin across the intestine was examined in mice. [^14C]-innulin (30 μCi/kg) was co-administered with AT-1002 (10, 20 and 40 mg/kg), protease inhibitors (i.e. bestatine (30 mg/kg) and E-64 (10 mg/kg)) and benzalkonium chloride (0.05% w/v) to rats (n=4-5 per group) via the intra-duodenal administration.

[7] = test system: Caco-2 cell monolayers; conditions: AT1002 5 mM
Description: as §1, §2, §3, §4

[8] = target: T1, PAR-2 (Mus musculus, UniProt P55086); conditions: intracolonic infusion, 5 μg dose; cited from earlier work
T1 construct: Intracolonic infusion of a 5 μg dose of the PAR-2 agonist, SLIGRL; host or cells: colon in vivo (endogenous receptor)
T1 sequence (P55086 26-399): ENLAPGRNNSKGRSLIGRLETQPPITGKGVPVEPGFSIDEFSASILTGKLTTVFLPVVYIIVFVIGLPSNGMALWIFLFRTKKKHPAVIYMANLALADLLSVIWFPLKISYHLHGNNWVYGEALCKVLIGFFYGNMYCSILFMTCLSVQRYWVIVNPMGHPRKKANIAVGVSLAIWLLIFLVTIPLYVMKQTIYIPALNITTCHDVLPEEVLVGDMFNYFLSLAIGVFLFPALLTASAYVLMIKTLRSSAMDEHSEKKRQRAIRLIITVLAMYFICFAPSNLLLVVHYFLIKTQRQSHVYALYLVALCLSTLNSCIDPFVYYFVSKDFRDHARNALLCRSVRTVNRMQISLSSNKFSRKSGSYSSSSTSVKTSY

[9] = test system: Caco-2 cell monolayers; conditions: ZOT 0.22 to 0.89×10^−10 mol/ml; as seen with paclitaxel; cited from earlier work
[10] = ZOT 4.4×10^−10 mol/kg; cited from earlier work
[11] = as seen with CsA after metabolic protection; cited from earlier work

## OC[C@@H](O)[C@@H](O)[C@H](O)[C@H](O)CO [Mannitol]
[1]
  Papp at 0.5 μCi/ml: 0.686 ± 0.057 ×10⁻⁶ cm/s

## H-FCIGRL-OH [AT1002, H—FCIGRL-OH]
[2]
  permeating effect on intercellular tight junctions: retained the ZOT permeating effect
[3]; 20 min
  intestinal transport of [^3H]-cyclosporin A, enhancement: 1.78 fold
[3]; 60 min
  intestinal transport of [^3H]-cyclosporin A, enhancement: 1.55 fold
[3]; each time point
  change in plasma concentration of CsA between 10 mg/kg and 40 mg/kg of AT1002: No statistically significant change
[3]; in the presence of PI
  in vivo oral absorption of CsA: significantly increased
[4]
  intestinal membrane transport of marker: not enhanced
[5]; AT-1002 10 mg/kg
  intestinal membrane transport of [^14C]-mannitol, increase: 1.43 fold
[5]; AT-1002 20 mg/kg
  intestinal membrane transport of [^14C]-mannitol, increase: 1.24 fold
[5]; AT-1002 30 mg/kg
  intestinal membrane transport of [^14C]-mannitol, increase: 1.81 fold
[6]
  intestinal membrane transport of [^14C]-innulin: not enhanced
[7]
  CsA transport across Caco-2 cell monolayers, significance vs control: No significant increases

## SLIGRL
[8]
  increase in the paracellular permeability of [^51C]-EDTA: 2 fold

## ZOT: 44.8 kDa protein (399 amino acids) of Vibrio cholerae that reversibly opens tight junctions
[9]
  transport enhancement across Caco-2 cell monolayers: up to 30 fold
[10]
  bioavailability of oral insulin / serum glucose lowering: sufficient to lower serum glucose concentrations to levels comparable to those obtained after parenteral injection

## ΔG: 12 kDa fragment (AA 265-399) of ZOT, biologically active fragment
[11]
  increase in AUC: ≤ 50 fold
  increase in Cmax: up to 57 fold
